From patent US20220340665A1, “INHIBITOR AGAINST EXPRESSION OF IMMUNE CHECKPOINT MOLECULE” (RENASCIENCE INC., priority 2019, published 2022)
Entries after “also recorded” stand apart in the source; their conditions may differ.

Columns and labels:
[1] = system: mouse leukemia cell line (32Dp210); experiment: PD-L1 mRNA expression by real-time PCR in 32Dp210 cells (Experimental Example 4); type: cell-based; conditions: inhibitor 50 μM with rPAI-1 40 nM or 100 nM, overnight, listed as PAI-1 inhibitor
Procedure: The culture supernatant of the cells overexpressing PAI-1 (32D PAI-1 OE) prepared in Experimental Example 1 (PAI-1 OE sup) was added to a mouse leukemia cell line (32Dp210). In addition, those obtained by adding the PAI-1 inhibitor to a concentration of 50 μM, together with rPAI-1 (40 nM or 100 nM), were also prepared. Then, culturing was performed on a 96-well plate at 37° C., 5% CO2, overnight. The cells were collected, RNA was extracted using ISOGEN2 (Nippon Gene Co., Ltd.), and 100 ng of RNA was subjected to a reverse transcription reaction using a PrimeScript RT-PCR kit (Takara Bio Inc.) to obtain cDNA. The PD-L1 gene expression level was monitored by real-time PCR using TaqMan Fast Advanced Master Mix (Thermo Fisher Scientific). PD-L1 (Mm00452054_m1, Thermo Fisher Scientific) was used as the primer. To standardize the RNA amount, the expression level of 18S rRNA (Hs99999901_s1, Thermo Fisher Scientific) was also measured simultaneously. The PD-L1 gene expression level was determined using a comparative Ct method, which was shown in the graph as a ratio relative to the control group.

[2] = system: regulatory T cells (Treg); experiment: Regulatory T cells in MC38 tumor mass by flow cytometry (Experimental Example 14); type: in vivo, mice (C57BL6); conditions: oral administration for one week, vs vehicle
Procedure: 1) The untreated group and 3) the single-administration group of PAI-1 inhibitor (cancer-bearing mice) of Experimental Example 11, after tumor engraftment, were orally administered with physiological saline (vehicle) or the PAI-1 inhibitor for one week. Thereafter, the tumors were collected, the cells were stained with an anti-CD45 antibody, an anti-CD4 antibody, an anti-CD25 antibody, and an anti-foxp3 antibody, and the percentage of regulatory T cells (Treg) in the tumor mass was analyzed with a flow cytometer.

[3] = system: M2 macrophages (CD11b+CD206+); experiment: PD-L1 expression in M2 macrophages from cultured mouse spleen cells (Experimental Example 6); type: cell-based; conditions: inhibitor 50 μM with rPAI-1 100 nM, 4 days; listed as PAI-1 inhibitor
Procedure: Specifically, 5×10^6 mouse spleen cells were cultured on a 24-well plate at 37° C., 5% CO2, overnight. After floating cells were removed, rPAI-1 (100 nM) was added, and culturing was performed at 37° C., 5% CO2, for 4 days. After culture, adherent cells were collected by trypsin treatment and stained with an anti-CD11b antibody and an anti-CD206 antibody, in addition to an anti-PD-L1 antibody. Then, gating was performed on CD11b and CD206 double-positive (CD11b^+CD206^+) M2 macrophages, and the PD-L1 expression level thereof was determined with a flow cytometer. As a comparative control experiment, the PD-L1 expression level in untreated mouse spleen cells (control) was determined in the same manner. Further, the PAI-1 inhibitor (50 μM) was added to the same mouse spleen cells, together with rPAI-1 (100 nM), followed by culture under the same conditions as described above. Then, adherent cells were collected and the PD-L1 expression level was determined with a flow cytometer in the same manner.

[4] = system: cancer-associated fibroblasts (CAF); experiment: Cancer-associated fibroblasts in MC38 tumor sections (Experimental Example 15); type: in vivo, mice (C57BL6); conditions: oral administration for one week, vs vehicle
Source text: 1) The untreated group and 3) the single-administration group of PAI-1 inhibitor (cancer-bearing mice) of Experimental Example 11, after tumor engraftment, were orally administered with physiological saline (vehicle) or the PAI-1 inhibitor for one week. Thereafter, the tumor was collected, fixed with paraformaldehyde, and then embedded in paraffin to prepare tissue sections. The tissue sections were stained with an anti-SMAcα antibody, and the percentage of cancer-associated fibroblasts (CAF) was observed under a microscope.

[5] = system: human ovarian clear cell adenocarcinoma cell line (ES2); experiment: PD-L1 expression in tumor cells of ES2 tumor mass in nude mice (Experimental Example 9); type: in vivo; conditions: ES2 subcutaneous in nude mice; 10 mg/kg orally once daily, 7 days; vs vehicle
Procedure: The efficacy of the PAI-1 inhibitor against human cancer cells (ovarian cancer cells) was studied in vivo. Specifically, 5×10^5 cells of a human ovarian clear cell adenocarcinoma cell line (ES2) were transplanted subcutaneously in nude mice. One week later, engraftment of more than 5 mm of tumor mass in the major axis was confirmed. Subsequently, the PAI-1 inhibitor was orally administered once daily at 10 mg/kg for a total of 7 days. On the next day of the final administration, the tumor mass was collected from the mice, chopped with scissors, suspended in a 0.025% collagenase solution (FUJIFILM Wako Pure Chemical Corporation), and treated at 37° C. for 2 hours to break cell-cell bonds. The cells obtained by enzymatic treatment were stained with an anti-PD-L1 antibody (clone name: 10F.G92) labelled with Allophycocyanin (APC), and the PD-L1 expression level in the tumor cells was determined with a flow cytometer. As a comparative control experiment, cells were collected also from the tumor mass in the same manner in terms of a mouse group to which only physiological saline (vehicle) was administered instead of the PAI-1 inhibitor, and the PD-L1 expression level in the tumor cells was determined with a flow cytometer.

[6] = system: M2 macrophages; experiment: Macrophages and M2 macrophages in MC38 tumor mass by flow cytometry (Experimental Example 13); type: in vivo, mice (C57BL6); conditions: oral administration for one week, vs vehicle
Procedure: 1) The untreated group and 3) the single-administration group of PAI-1 inhibitor (cancer-bearing mice) of Experimental Example 11, after tumor engraftment, were orally administered with physiological saline (vehicle) or the PAI-1 inhibitor for one week. Thereafter, the tumors were collected, and the M2 macrophages were stained with an anti-CD45 antibody, an anti-CD11b antibody, an anti-F4/80 antibody, and an anti-CD206 antibody, and the percentage of M2 macrophages in the tumor mass was analyzed with a flow cytometer.

[7] = system: mouse malignant melanoma cell line (B16F10); experiment: PD-L1 expression level by flow cytometry in B16F10 cells (Experimental Example 3); type: cell-based; conditions: inhibitor 50 μM with rPAI-1 40 nM, 2 days, listed as PAI-1 inhibitor
Procedure: Next, the PD-L1 expression level was determined by flow cytometry in the same manner as in Experimental Example 1.
Likewise, a mouse colorectal cancer cell line (MC38) and a mouse malignant melanoma cell line (B16F10) were also tested in the same manner, instead of the mouse leukemia cell line (32Dp210).

[8] = system: M2 macrophages (CD11b+CD206+); experiment: PD-L1 expression in M2 macrophages of orally dosed mice (Experimental Example 7); type: in vivo, mice (C57BL6); conditions: peripheral blood; 10 mg/kg orally once daily, 7 days; vs vehicle
Procedure: Mice (C57BL6) were orally administered with the PAI-1 inhibitor once daily at 10 mg/kg for a total of 7 days. On the next day of the final administration, the peripheral blood or the spleen was collected from the mice. The spleen was mechanically dispersed through nylon mesh. The peripheral blood and spleen cells were independently hemolyzed with an ammonium chloride solution, and the PD-L1 expression level in M2 macrophages (CD11b^+CD206^+) was determined with a flow cytometer. As a comparative control experiment, the peripheral blood or the spleen was collected in the same manner from a mouse group to which only physiological saline (vehicle) was administered to determine the PD-L1 expression level in M2 macrophages (CD11b^+CD206^+).

In the case of `O=C(Nc1ccc(Cl)cc1C(=O)[O-])c1cccc(-c2cccc3cccnc23)c1.[Na+]` [Example 68, 5-chloro-2-(((3-(quinolin-8-yl)phenyl)carbonyl)amino)sodium benzoate], the “increase in PD-L1 mRNA expression by rPAI-1” value [1] is reported as “inhibited the induction of the expression; also recorded: suppressed”, the “percentage of regulatory T cells in the tumor” value [2] is reported as “reduced” and the “enhancement of PD-L1 expression by rPAI-1 in M2 macrophages” value [3] is reported as “completely suppressed”. The “percentage of intratumoral infiltration of cancer-associated fibroblasts” value [4] was “reduced”, the “PD-L1 expression level in the tumor cells” value [5] was “reduced” and the “number of macrophages in the tumor” value [6] was “reduced”. For the same molecule, the “percentage of M2 macrophages among macrophages” value [6] was “reduced”, the “PD-L1 expression induction by rPAI-1” value [7] was “completely inhibited the induction; also recorded: the same results as those of the leukemia cells” and the “PD-L1 expression level in M2 macrophages” value [8] was “reduction in the PD-L1 expression level”.
